From patent US8906925B2, “Pyrido[4,3-B]indoles containing rigid moieties” (Medivation Technologies, Inc., priority 2008, dated 2014)

Tests used:
C57Bl/6J mice = assay: PCP-induced hyperactivity, open field test; assay type: in vivo, mouse; conditions: p.o. 30 min prior to PCP (5.0 mg/kg i.p.), 90 min. test
Method: One exemplary model for testing the activity of one or more compounds described herein to treat and/or prevent and/or delay the onset and/or development of schizophrenia employs phencyclidine (PCP), which is administered to the animal (e.g., non-primate (rat) or primate (monkey)), resulting in dysfunctions similar to those seen in schizophrenic humans. See Jentsch et al., 1997, Science 277:953-955 and Piercey et al., 1988, Life Sci. 43(4):375-385). Standard experimental protocols may be employed in this or in other animal models. One protocol involves PCP-induced hyperactivity.
Male C57Bl/6J mice from Jackson Laboratories (Bar Harbor, Me.) were used. Mice were received at 6-weeks of age. Upon receipt, mice were assigned unique identification numbers (tail marked) and were group housed with 4 mice/cage in OPTIMICE ventilated cages. All animals remained housed in groups of four during the remainder of the study. All mice were acclimated to the colony room for at least two weeks prior to testing and were subsequently tested at an average age of 8 weeks of age. During the period of acclimation, mice were examined on a regular basis, handled, and weighed to assure adequate health and suitability. Animals were maintained on a 12 h/12 h light/dark cycle. The room temperature was maintained between 20 and 23° C. with a relative humidity maintained between 30% and 70%. Food and water were provided ad libitum for the duration of the study. In each test, animals were randomly assigned across treatment groups.
The following compounds were used for this study: 1) Compound Nos 83, 88, 90 (0.03, 0.1, 0.3, 1, 3, 10 & 30 mg/kg) was dissolved in 5% PEG-200 in sterile water and administered p.o. 30 min prior to PCP injection; 2) Clozapine (1.0 mg/kg) was dissolved in 10% DMSO and administered i.p. 30 min prior to phencyclidine (PCP) injection; 3) PCP (5.0 mg/kg) was dissolved in sterile water and administered i.p. immediately before the 60 min. test. All compounds were administered at a dose volume of 10 mL/kg.
The open filed (OF) test assesses locomotor behavior, i.e. to measure mouse locomotor activity at baseline and in response to pharmacological agents. The open field chambers are Plexiglas square chambers (27.3×27.3×20.3 cm; Med Associates Inc., St Albans, Vt.) surrounded by infrared photobeams (16×16×16) to measure horizontal and vertical activity. […] Distance traveled was measured from horizontal beam breaks as the mouse moved whereas rearing activity was measured from vertical beam breaks. […]
Data were analyzed by analysis of variance (ANOVA) followed by post-hoc comparisons with Fisher Tests when appropriate. Baseline activity was measured during the first 30 min. of the test prior to PCP injection. PCP-induced activity was measured during the 60 min. following PCP injection. […]

male Wistar rat = assay: Conditioned avoidance response (CAR) model; assay type: in vivo; conditions: 0.1, 0.3, 1, 3, 10 and 20 mg/kg, p.o.
Method: All currently approved antipsychotic agents (typical and atypical) are known to have the ability to selectively suppress conditioned avoidance response (CAR) behavior in the rat. This evidence makes CAR one of the primary tests to assess antipsychotic activity of novel compounds.
The effects of Compound Nos. 83, 88 and 90, at concentrations including 0.1, 0.3, 1, 3, 10 and 20 mg/kg, p.o., in the conditioned avoidance response model were assessed in the male Wistar rat. Risperidone (0.3 mg/kg, s.c.) was used in the present study as a positive reference compound.
For each testing session, animals were first placed for a 4-min. habituation period in a shuttlebox with an electrified grid floor. Then, rats were submitted to 30 trials spaced by intertribal intervals varying at random between 20 and 30 sec. Each trial consisted of a 10-sec. light stimulus (conditioned stimulus, CS) followed by a 10-sec. electric foot shock (unconditioned stimulus, US) in presence of the light presented in the compartment where the rat is located. If the animal moved to the other compartment during the initial 10-sec. of the trial, the light was terminated (no shock was delivered) and the response was recorded as an avoidance response. If the rat changed compartment during the foot shock, the light and the shock were terminated and the response was recorded as an unconditioned response. […] If a response was made during an intertrial interval, the response was recorded as an intertrial crossing. Training was performed 5 days per week with one session of 30 trials per day, until rats reached the performance criterion of 80% of avoidance response on at least two consecutive daily sessions. […] A minimal wash-out period of 48 hours was allowed between 2 treatments. During the wash-out period, animals were trained until they recovered an avoidance performance of at least 80%.
Statistical analysis was performed using a Friedman two-way ANOVA by ranks followed by the Wilcoxon matched-pairs signed-ranks test to test each dose of the test compound administered versus vehicle control treated rats.

SMILES	Total Distance Traveled (center+periphery), ANOVA (C57Bl/6J mice)	Total Rearing (center+periphery), ANOVA (C57Bl/6J mice)	number of avoidance responses versus pretreatment, compared to vehicle (male Wistar rat)
C/C(=C\n1c2c(c3cc(Cl)ccc31)CN(C)CC2)c1ccc(F)cc1 [Compound 83, (E)-8-chloro-5-(2-(4-fluorophenyl)prop-1-enyl)-2,3,4,5-tetrahydro-2-methyl-1H-pyrido[4,3-b]indole]	significant treatment effect	significant treatment effect	significantly and dose-dependently decreased
C/C(=C\n1c2c(c3cc(Cl)ccc31)CN(C)CC2)c1ccncc1 [Compound 90, (E)-8-chloro-2,3,4,5-tetrahydro-2-methyl-5-(2-(pyridin-4-yl)prop-1-enyl)-1H-pyrido[4,3-b]indole]	significant treatment effect	–	significantly and dose-dependently decreased
C/C(=C\n1c2c(c3cc(C)ccc31)CN(C)CC2)c1ccncc1 [Compound 88, (E)-2,3,4,5-tetrahydro-2,8-dimethyl-5-(2-(pyridin-4-yl)prop-1-enyl)-1H-pyrido[4,3-b]indole]	significant treatment effect	–	significantly and dose-dependently decreased
